For orientation: inhibition means the change of the read-out against control, counted positive when it falls. As a reminder, the IC50 is the concentration needed to halve the response being measured.

The results in this text go back to publication PMC5086919, “Antileukemic Scalarane Sesterterpenoids and Meroditerpenoid from Carteriospongia (Phyllospongia) sp., Induce Apoptosis via Dual Inhibitory Effects on Topoisomerase II and Hsp90” (Scientific Reports, 2016).

The target in one experiment is T1, human topoisomerase II (Homo sapiens, UniProt P11388).
T1 construct: purchased Topogen
T1 sequence (P11388 whole entry): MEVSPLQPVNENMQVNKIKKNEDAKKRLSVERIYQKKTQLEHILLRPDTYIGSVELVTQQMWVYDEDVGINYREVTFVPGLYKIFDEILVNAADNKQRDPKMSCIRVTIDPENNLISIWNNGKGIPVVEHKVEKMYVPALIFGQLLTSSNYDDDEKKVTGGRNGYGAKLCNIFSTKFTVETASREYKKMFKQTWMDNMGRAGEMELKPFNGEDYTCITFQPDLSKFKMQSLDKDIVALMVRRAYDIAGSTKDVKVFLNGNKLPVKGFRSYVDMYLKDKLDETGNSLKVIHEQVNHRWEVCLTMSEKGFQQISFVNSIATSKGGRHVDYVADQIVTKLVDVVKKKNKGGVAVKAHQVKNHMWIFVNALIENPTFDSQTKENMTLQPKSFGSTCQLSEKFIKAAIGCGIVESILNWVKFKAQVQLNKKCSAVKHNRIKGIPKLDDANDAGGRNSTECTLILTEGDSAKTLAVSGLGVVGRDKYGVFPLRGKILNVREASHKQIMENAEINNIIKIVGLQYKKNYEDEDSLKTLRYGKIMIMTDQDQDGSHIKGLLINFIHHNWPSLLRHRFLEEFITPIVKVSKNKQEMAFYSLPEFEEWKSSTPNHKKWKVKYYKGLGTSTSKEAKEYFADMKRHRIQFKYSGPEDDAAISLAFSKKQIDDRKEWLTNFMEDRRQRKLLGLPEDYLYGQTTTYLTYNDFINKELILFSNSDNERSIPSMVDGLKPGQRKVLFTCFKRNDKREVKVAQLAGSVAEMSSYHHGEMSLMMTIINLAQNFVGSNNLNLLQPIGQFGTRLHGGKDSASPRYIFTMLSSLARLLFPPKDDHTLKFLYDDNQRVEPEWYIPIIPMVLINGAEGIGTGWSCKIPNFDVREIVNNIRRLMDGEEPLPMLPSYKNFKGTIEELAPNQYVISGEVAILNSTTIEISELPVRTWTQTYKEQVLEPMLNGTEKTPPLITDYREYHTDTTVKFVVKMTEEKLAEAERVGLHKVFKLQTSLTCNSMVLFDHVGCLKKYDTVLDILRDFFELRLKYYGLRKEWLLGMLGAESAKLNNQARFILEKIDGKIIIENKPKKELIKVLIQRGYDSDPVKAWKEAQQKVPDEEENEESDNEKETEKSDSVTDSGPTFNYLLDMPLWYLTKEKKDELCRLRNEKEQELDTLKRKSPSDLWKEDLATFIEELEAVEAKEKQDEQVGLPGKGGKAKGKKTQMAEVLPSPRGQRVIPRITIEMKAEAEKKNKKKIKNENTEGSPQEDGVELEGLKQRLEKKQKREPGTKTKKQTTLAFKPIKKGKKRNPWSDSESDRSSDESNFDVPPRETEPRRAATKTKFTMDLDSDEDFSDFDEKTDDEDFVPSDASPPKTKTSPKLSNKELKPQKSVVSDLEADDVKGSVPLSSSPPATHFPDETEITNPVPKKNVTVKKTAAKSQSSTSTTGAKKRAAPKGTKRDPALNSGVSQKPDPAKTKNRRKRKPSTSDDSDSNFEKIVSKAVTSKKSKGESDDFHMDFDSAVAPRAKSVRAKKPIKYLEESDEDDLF
Briefly: Cell-free topoisomerase II DNA relaxation/cleavage assay with supercoiled pHOT1 plasmid DNA. The class given is biochemical. The note with it: compared with control supercoiled DNA. An excerpt:
The ability of Topo II to generate DNA damage in the presence of Topo II-targeting agents led to the hypothesis that an important determinant of drug sensitivity was related to the overall level of Topo II[17]. […] Such findings encouraged us to evaluate the effect of the isolates on Topo II activity. In order to confirm whether the DNA damage-induced by the isolated sesterterpenoids involved the inhibition of Topo II activity, a cell-free DNA cleavage assay using an enzyme-mediated negatively supercoiled pHOT1 plasmid DNA was applied. […] These marine terpenoids suppressed Topo II activity, resulting in the inhibition of supercoiled DNA relaxation in a dose-dependent manner (Fig. 5A). […] To determine whether the apoptotic mechanism of these compounds affects γH2AX (as a biomarker of DNA damage) induction, Western blot analysis was employed to examine the activation of γH2AX.
The assay was performed as described previously. […] Reactions were terminated by adding 2 μL of 10% SDS to facilitate trapping the enzyme in a cleavage complex, followed by the addition of 2.5 μL of proteinase K (50 μg/mL) to digest the bound protein (incubated at 37 °C for 15 min) and finally by adding 0.1 volume of the sample loading dye. The DNA products were analyzed via electrophoresis through vertical 2% agarose gels at 2 voltage/cm in 0.5 × TAE buffer. Gels were stained with ethidium bromide and photographed using an Eagle Eye II system (Stratagene, La Jolla, CA, USA). The quantitative analysis of the DNA Topo II activity was performed as described previously.

The test system of another experiment is Cal-27 cells. Briefly: MTT antiproliferative assay, oral Cal-27 cells. The note with it: Homo sapiens, CAL-27, 72 h, read-out: IC50, cytotoxicity, Oral Cal-27. In general terms: Tetrazolium assays rely on reduction of a dye to a coloured formazan, in cell work by metabolically active cells.
Another experiment concerns T-47D cells. Briefly: MTT antiproliferative assay, breast cancer T-47D cells. The note with it: Homo sapiens, T47D, 72 h, read-out: IC50, cytotoxicity, Breast T-47D.

The structures appear in SMILES notation. In brackets after ≈: the same amount, converted by molar mass.

Description for Cal-27 cells: (§1) Several cancer cell lines including leukemia K562, Molt 4, and HL 60 cells, prostate cancer LNCaP cells, colon cancer DLD-1 cells and breast cancer T-47D cells were used to evaluate the antiproliferative activity.
(§2) The cell lines were obtained from the American Type Culture Collection (ATCC, Manassas, VA, USA). […] Dimethyl sulfoxide (DMSO), 3-(4,5-dimethylthiazol-2-yl)-2,5-diphenyl-tetrazolium bromide (MTT) and all other chemicals were purchased from Sigma-Aldrich (St. Louis, MO, USA).
Description for T-47D cells: as §1, §2

`CC[C@@]1(C)CCC[C@]2(C)[C@H]3C[C@@H](OC(=O)C[C@@H](C)O)[C@]4(C)[C@@H](C=O)C(C(C)=O)=CC[C@H]4[C@]3(C)CC[C@@H]12` (relative stereo) [Compound 1, 12β-(3′β-hydroxybutanoyloxy)-20,24-dimethyl-24-oxo-scalara-16-en-25-al] registered an inhibition at 0.08 µg/mL against human topoisomerase II (0.08 μg/mL) of 12%. In addition, the inhibition at 0.312 µg/mL on human topoisomerase II (0.312 μg/mL) was determined as 13%. On human topoisomerase II (1.25 μg/mL), at 1.25 µg/mL the inhibition was 17%. The inhibition at 5 µg/mL at human topoisomerase II (5 μg/mL) stood at 20%. Further, on human topoisomerase II (20 μg/mL), 20 µg/mL produced 99% inhibition. For the same compound, the values for the IC50 in the experiment with Cal-27 cells and in the experiment with T-47D cells were 0.56 µg/mL (≈ 1.12 µM) and 2.19 µg/mL (≈ 4.37 µM), respectively.
